In ChEMBL document CHEMBL1287669, “Inhibitors selective for HDAC6 in enzymes and cells” (Bioorg Med Chem Lett, 2010):
Active and inactive are the calls of the source. The calls are words filed in the database; no cut-off is given here.

Assays:
[1] = molecular target: T1, Protein deacetylase HDAC6 (Homo sapiens) (UniProt Q9UBN7); assay: Inhibition of recombinant human HDAC6 at 1 uM using Boc-Lys(Ac)-AMC as substrate by fluorometric analysis
T1 sequence (whole entry): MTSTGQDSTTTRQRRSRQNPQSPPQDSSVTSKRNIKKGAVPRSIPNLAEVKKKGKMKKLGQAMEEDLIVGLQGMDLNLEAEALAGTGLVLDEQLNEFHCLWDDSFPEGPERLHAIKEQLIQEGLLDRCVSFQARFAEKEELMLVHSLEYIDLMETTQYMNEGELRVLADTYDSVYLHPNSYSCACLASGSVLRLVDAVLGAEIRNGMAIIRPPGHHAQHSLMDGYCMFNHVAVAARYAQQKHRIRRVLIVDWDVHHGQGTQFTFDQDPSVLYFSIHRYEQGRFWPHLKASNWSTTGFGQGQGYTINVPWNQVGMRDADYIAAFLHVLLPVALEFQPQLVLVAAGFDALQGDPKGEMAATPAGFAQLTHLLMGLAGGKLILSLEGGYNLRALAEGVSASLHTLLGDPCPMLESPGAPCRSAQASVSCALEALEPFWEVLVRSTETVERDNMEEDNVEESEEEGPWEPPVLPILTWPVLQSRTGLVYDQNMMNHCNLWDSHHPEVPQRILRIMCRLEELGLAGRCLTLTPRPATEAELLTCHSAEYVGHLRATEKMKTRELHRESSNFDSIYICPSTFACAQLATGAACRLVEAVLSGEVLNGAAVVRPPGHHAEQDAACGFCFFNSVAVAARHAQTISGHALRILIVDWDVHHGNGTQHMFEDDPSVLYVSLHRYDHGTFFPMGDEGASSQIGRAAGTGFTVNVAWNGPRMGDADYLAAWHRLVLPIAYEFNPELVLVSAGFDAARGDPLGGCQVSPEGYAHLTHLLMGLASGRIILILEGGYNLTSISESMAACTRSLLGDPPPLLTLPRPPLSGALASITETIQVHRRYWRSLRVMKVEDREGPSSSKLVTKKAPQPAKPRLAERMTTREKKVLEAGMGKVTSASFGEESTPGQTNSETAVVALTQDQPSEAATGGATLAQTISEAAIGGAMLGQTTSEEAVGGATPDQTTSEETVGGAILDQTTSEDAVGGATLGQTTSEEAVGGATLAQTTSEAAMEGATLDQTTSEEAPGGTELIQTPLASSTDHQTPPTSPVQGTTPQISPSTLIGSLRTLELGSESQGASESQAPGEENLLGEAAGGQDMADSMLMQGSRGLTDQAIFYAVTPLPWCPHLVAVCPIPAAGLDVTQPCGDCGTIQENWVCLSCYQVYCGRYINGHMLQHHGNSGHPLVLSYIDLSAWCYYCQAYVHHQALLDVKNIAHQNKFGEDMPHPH

[2] = molecular target: T2, Protein deacetylase HDAC6 (Homo sapiens, UniProt Q9UBN7); assay: Inhibition of recombinant human HDAC6 using Boc-Lys(Ac)-AMC as substrate by fluorometric analysis
T2 sequence (Q9UBN7 whole entry): T1 sequence (whole entry)

Histone deacetylase 1 [3] = molecular target: T3, Histone deacetylase 1 (Homo sapiens, UniProt Q13547); assay: Inhibition of recombinant human HDAC1 using Cbz-Lys(TFAc)-AMC as substrate by fluorometric analysis
Histone deacetylase 1 [4] = molecular target: T3, Histone deacetylase 1; assay: Inhibition of human HDAC1 in PMA-differentiated THP1 cells assessed as hyperacetylation of histone H3 after 4 hrs by Western blotting; format: cell-based; conditions: THP-1
[5] = molecular target: T2, Protein deacetylase HDAC6; assay: Inhibition of recombinant human HDAC6 using Ac-RHKK(Ac)-ACC as substrate by fluorometric analysis
Histone deacetylase 1 [6] = molecular target: T3, Histone deacetylase 1; assay: Inhibition of recombinant human HDAC1 using Ac-RHKK(Ac)-ACC as substrate by fluorometric analysis
Homo sapiens = organism: Homo sapiens; assay: Selectivity index, IC50 for recombinant human HDAC6 to IC50 for recombinant human HDAC1

T3 sequence (Q13547 whole entry): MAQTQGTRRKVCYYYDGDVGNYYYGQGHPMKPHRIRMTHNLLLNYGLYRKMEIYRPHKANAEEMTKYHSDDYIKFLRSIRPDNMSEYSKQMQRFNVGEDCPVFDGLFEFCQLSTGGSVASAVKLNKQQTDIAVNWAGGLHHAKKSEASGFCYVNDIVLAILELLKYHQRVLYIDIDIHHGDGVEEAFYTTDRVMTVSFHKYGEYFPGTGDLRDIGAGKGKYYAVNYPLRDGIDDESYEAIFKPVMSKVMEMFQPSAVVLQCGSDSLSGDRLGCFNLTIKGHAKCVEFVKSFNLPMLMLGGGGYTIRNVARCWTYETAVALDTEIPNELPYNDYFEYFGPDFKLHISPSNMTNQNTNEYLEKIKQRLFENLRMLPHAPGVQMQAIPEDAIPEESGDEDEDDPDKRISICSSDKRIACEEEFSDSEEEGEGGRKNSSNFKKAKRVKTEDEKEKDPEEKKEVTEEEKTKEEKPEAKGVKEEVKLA

Compound | inhibition [1] | IC50 [2] | IC50 (Histone deacetylase 1 [3]) | also measured
COC(=O)CCCCC[C@H](NC(=O)OCc1ccccc1)C(=O)NC1CCCC1 | 65% |  |  | 
CN(C)c1ccc(C(=O)N[C@@H](CCCCCC(=O)NO)C(=O)Nc2cccc3cccnc23)cc1 |  | 943 nM | 21 nM | 
CC(C)(C)OC(=O)N[C@@H](CCCCCCS)C(=O)NC1CCCC1 | 60% |  |  | 
O=C(CCCCC[C@H](NC(=O)c1cc2ccccc2[nH]1)C(=O)Nc1cccc2cccnc12)NO |  | 107 nM | 48 nM | 
O=C(O)CCCC[C@H](NC(=O)OCc1ccccc1)C(=O)NC1CCCC1 | 20% |  |  | 
O=C(O)CCCCC[C@H](NC(=O)OCc1ccccc1)C(=O)NC1CCCC1 | 40% |  |  | 
CC(C)(C)OC(=O)Nc1ccc(-c2cc(C(=O)NCCCCCCC(=O)NO)no2)cc1 |  |  | 340 nM | IC50 (Histone deacetylase 1 [6]): 3.57 µM
O=C(CCCCCn1c2ccccc2c2ccccc21)NO |  |  |  | Ratio IC50 (Homo sapiens): 74; IC50 [5]: 41 nM; IC50 (Histone deacetylase 1 [6]): 3.07 µM

Second part, led by results:

inhibition [1] | IC50 [2] | IC50 (Histone deacetylase 1 [3]) | Compound | also measured
50% |  |  | CC(C)(C)OC(=O)N[C@@H](CCCCO)C(=O)NC1CCCC1 | 
98% | 54 nM | 1730 nM | CC(C)(C)OC(=O)N[C@@H](CCCCCS)C(=O)NC1CCCC1 | inhibition (Histone deacetylase 1 [4]): Active
80% | 240 nM | > 10000 nM | CC(C)(C)OC(=O)N[C@@H](CCCCCO)C(=O)NC1CCCC1 | 
60% |  |  | COC(=O)CCCCC[C@H](NC(=O)OC(C)(C)C)C(=O)NC1CCCC1 | 
3% |  |  | CC(C)(C)OC(=O)N[C@@H](CCCCCCO)C(=O)NC1CCCC1 | 
99% | 26 nM | 1420 nM | CC(C)(C)OC(=O)N[C@@H](CCCCCC(=O)NO)C(=O)NC1CCCC1 | IC50 [5]: 27 nM; IC50 (Histone deacetylase 1 [6]): 3.57 µM
40% |  |  | COC(=O)CCCC[C@H](NC(=O)OC(C)(C)C)C(=O)NC1CCCC1 | 
45% |  |  | CC(C)(C)OC(=O)N[C@@H](CCCCCC(=O)O)C(=O)NC1CCCC1 | 
